Measured values: patent US20070004689A1, “Antiangiogenic agents” (priority 2004, published 2007)
Where two headings read alike, the source gives them in different places.

Assays:
MCF7 cells = assay: MCF7 estrogen-dependent proliferation assay (estrogenicity); assay type: cell-based, human; conditions: stimulation index, 2ME2 defined as 1.00; less than 1.00 = reduced estrogenicity; 7 days of treatment
From the text: (§1) Cell Culture: Human umbilical vein endothelial cells (HUVEC) were obtained from Clonetics (San Diego, Calif.), MCF7 cells were the kind gift of Dr. Dorraya El Ashry (University of Michigan), MDA-MB-231 a human breast carcinoma, PC3 a human prostate carcinoma, and U87-MG a human glioma, cell lines were obtained from ATCC. HUVEC cultures were maintained for up to 5 passages in EGM containing bovine brain extract (Clonetics) and 1× antibiotic-antimycotic (BioWhittaker, Walkersville, Md.). MDA-MB-231, PC3, U87-MG and MCF-7 cells were maintained in DMEM/F12 (1:1) containing 10% (v/v) fetal bovine serum (Hyclone Laboratories, Logan, Utah) and 1× antibiotic-antimycotic. MCF7 cells were used between passage 60 and passage 100.
Proliferation Assays: Proliferation was measured by cell counting using a Coulter Zl cell counter (Coulter Corporation, Hialeah, Fla.) or by evaluation of DNA synthesis. Each condition was done in triplicate and experiments were repeated at least twice. To determine estrogenicity of the analogs, MCF7 estrogen-dependent proliferation assays were performed. The cells were seeded in complete media at 10,000 cells/well in a 24 well plate after allowing the cells to adhere overnight and the seeding density was determined by cell counts. Cells were washed with PBS (37° C.) and starved by placing them in IMEM-phenol red free media containing 2% charcoal-dextran fetal bovine-stripped serum (Valley Biomedical, Winchester, Va.) and 1× antibiotic-antimycotic. After 3 days of starvation, cells were treated with or without increasing concentrations of compounds, replacing the media every 2-3 days and counted after 7 days of treatment. In order to ensure that only the added test compounds stimulated growth, experiments were performed only with cell cultures that duplicated less than once during the starvation period. […]. Estradiol is used as a positive control.

[1] = test system: MDA-MB-231 a human breast carcinoma; assay: BrdU proliferation assay, MDA-MB-231 (anti-tumor activity); assay type: cell-based; conditions: BrdU DNA synthesis, 48 h exposure, read-out: MDA-MB-231 (IC50 μM)
From the text: as §1
(§2) Proliferation Assays: Proliferation was measured by cell counting using a Coulter Zl cell counter (Coulter Corporation, Hialeah, Fla.) or by evaluation of DNA synthesis. Each condition was done in triplicate and experiments were repeated at least twice. To determine estrogenicity of the analogs, MCF7 estrogen-dependent proliferation assays were performed. The cells were seeded in complete media at 10,000 cells/well in a 24 well plate after allowing the cells to adhere overnight and the seeding density was determined by cell counts. Cells were washed with PBS (37° C.) and starved by placing them in IMEM-phenol red free media containing 2% charcoal-dextran fetal bovine-stripped serum (Valley Biomedical, Winchester, Va.) and 1× antibiotic-antimycotic. After 3 days of starvation, cells were treated with or without increasing concentrations of compounds, replacing the media every 2-3 days and counted after 7 days of treatment. In order to ensure that only the added test compounds stimulated growth, experiments were performed only with cell cultures that duplicated less than once during the starvation period. Values are expressed as MCF7 stimulation index (SI) relative to 2ME2 (defined as 1.00). A value less than 1.00 indicates reduced estrogenicity. Estradiol is used as a positive control.
(§3) To determine anti-tumor and anti-angiogenic activities of the analogs, proliferation assays were performed by evaluating detection of DNA synthesis by use of the 5-bromo-2′-deoxyuridine (BrdU) cell proliferation colorimetric ELISA kit from Roche (Indianapolis, Ind.) according to the manufacturer's instructions. For BrdU assays, the cells were seeded at 1,000 cells/well (MDA-MB-231, anti-tumor activity) or 3,000 cells/well (HUVEC, anti-angiogenic activity) in a 96 well plate, allowed to attach overnight and then exposed to the compound for 48 h. IC50 value is the concentration at which cell proliferation is inhibited by 50%.
(§4) Antiproliferative activity of the NCEs were assessed in tumor cell lines (MDA-MB-231 a breast carcinoma, PC3 a prostate carcinoma and U87-MG a glioma) and endothelial cells (HUVEC).

[2] = test system: PC3 a human prostate carcinoma; assay: Proliferation assay, PC3; assay type: cell-based; conditions: proliferation, read-out: PC3 (IC50 μM)
From the text: as §1, §2, §3, §4

[3] = Rat pharmacokinetics, cassette dosing, oral; assay type: in vivo; conditions: oral 5 mg/kg, plasma
Procedure: Pharmokinetics (PK): PO Cmax is the maximal concentration of drug achieved after oral administration in rats and AUC is the area under the curve. These parameters are an indication of oral bioavailability. PK parameters were determined using a cassette-dosing approach. A group of new chemical entities (NCEs) (usually 3-6 molecules) was dissolved in DMSO or ethanol and diluted with a solution of a dextrin polymer to the final working concentration (usually 0.2-2 mg/mL). Groups of three rats with in-dwelling catheters were dosed either orally (5 mg/kg) or i.v. (1 mg/kg) with the cassette of NCEs. Blood was collected at nine time points from 2 minutes to 24 hours. Plasma was separated and aliquots of the replicate samples were pooled for analysis. Plasma proteins were precipitated by addition of organic solvent (most often methanol or acetonitrile). For some analogs, an acid modifier was added to the precipitation mixture to enhance recovery. Precipitated proteins were removed by centrifugation and the supernatant was injected onto a C18 reversed phase column attached to an LC-MS-MS mass spectrometer. Analytes were partly resolved by a rapid (5 minute) gradient of organic modifier. Analytes were measured as either positive or negative ions, depending on ionization characteristics, in the SRM (or MS-MS) mode. Quantification was carried out by correlation of peak heights or areas for each analyte to a set of concentration standards of the same analytes diluted into blank plasma. Concentration vs. time data was analyzed by WinNonLin.

U87-MG a human glioma = assay: Proliferation assay, U87-MG; assay type: cell-based; conditions: proliferation, read-out: U87-MG (IC50 μM)
From the text: as §1, §2, §3, §4

| SMILES | MCF7 SI Relative to 2ME2 (MCF7 cells) | IC50 ([1]; Homo sapiens, MDA-MB-231) | IC50 ([2]; Homo sapiens) | AUC ([3]; rat) | Cmax ([3]; rat) | IC50 (U87-MG a human glioma; Homo sapiens, U-87 MG) | IC50 [1] | IC50 [2] | Cmax [3] | Rat PO AUC (nM) [3] | IC50 (U87-MG a human glioma) |
| --- | --- | --- | --- | --- | --- | --- | --- | --- | --- | --- | --- |
| COc1cc2c(cc1C(N)=O)CC[C@@H]1[C@@H]2CC[C@]2(C)C(=O)CC[C@@H]12 [Compound 54, 2-methoxy-17-oxoestra-1,3,5(10)-triene-3-carboxamide] | 0.26 | 2.2 ± 0.43 µM | 4.64 ± 0.9 µM | 0.185 µM·h | 47 nM | 2.23 ± 0.4 µM |  |  |  |  |  |
| COc1cc2c(cc1C(N)=O)CC[C@@H]1[C@@H]2CC[C@]2(C)CCC[C@@H]12 [Compound 57, (2-Methoxyestra-1,3,5(10)-trien-3-yl)-3-carboxamide] | 0.31 |  |  |  |  |  | 2.37 ± 0.8 µM | 5.7 ± 0.58 µM | 130 nM | 0.624 µM·h | 10 ± 2.49 µM |
| C=C1CC[C@H]2[C@@H]3CCc4cc(C(N)=O)c(OC)cc4[C@H]3CC[C@]12C [Compound 60, 2-Methoxy-17-methyleneestra-1,3,5(10)-triene-3-carboxamide] | 0.26 | 0.19 ± 0.08 µM | 0.25 ± 0.01 µM | 1.4 µM·h | 185 nM | 0.25 ± 0.02 µM |  |  |  |  |  |
| COc1cc2c(cc1C(N)=O)CC[C@@H]1[C@@H]2CC[C@]2(C)C=CC[C@@H]12 [Compound 63, 3-carboxamide-2-methoxy-1,3,5(10)16-estratetraene] | 0.28 |  |  |  |  |  | 0.19 ± 0.04 µM | 0.21 ± 0.1 µM | 127 nM | 0.961 µM·h | 0.23 ± 0.08 µM |
